Experiments:
[1] = tested on: murine TLR9; assay: NF-κB luciferase assay, HEK 293 cells transfected with murine TLR9; type: cell-based; conditions: TLR9-transfected HEK 293 cells, 1 μM CpG-DNA, inhibitor added 15 min prior to stimulation
Procedure: Activation is expressed as fold induction compared to no stimulation. NF-κB luciferase assay. For monitoring transient NF-κB activation, 3×10^6 HEK 293 cells were electroporated at 200 volt and 950 μF with 20 ng of a NF-κB luciferase reporter plasmid (kindly provided by Patrick Baeuerle, Munich, Germany) and 1 μg mTLR2 (kindly provided by Tularik, Inc., South San Francisco, USA), mTLR9, or mTLR9-mut expression plasmid. Cells were seeded at 10^5 cells per well and after overnight culture stimulated with 1 μM phosphorothioated CpG-DNA 1668 (SEQ ID NO:1), 1 μM non-CpG-DNA 1668GC (SEQ ID NO:3), 1 μg/ml Pam[…][…] or 1 μg/ml PHCK4 for further 8 hours. […] Stimulated cells were lysed using reporter lysis buffer (Promega, Mannheim, Germany) and lysates were assayed for luciferase activity using a Berthold luminometer (Wildbad, Germany) according to the manufacturer's instruction.

[2] = molecular target: T1, TLR9-CpG-DNA interaction (Mus musculus, UniProt Q9EQU3); assay: SPR biosensor analysis of inhibitors on TLR9-CpG-DNA interaction; type: binding, murine; conditions: SPR, 200 nM TLR9, immobilized CpG-DNA 1668
T1 construct: mTLR9ect (aa 1-816); made in house
T1 sequence (Q9EQU3 26-816): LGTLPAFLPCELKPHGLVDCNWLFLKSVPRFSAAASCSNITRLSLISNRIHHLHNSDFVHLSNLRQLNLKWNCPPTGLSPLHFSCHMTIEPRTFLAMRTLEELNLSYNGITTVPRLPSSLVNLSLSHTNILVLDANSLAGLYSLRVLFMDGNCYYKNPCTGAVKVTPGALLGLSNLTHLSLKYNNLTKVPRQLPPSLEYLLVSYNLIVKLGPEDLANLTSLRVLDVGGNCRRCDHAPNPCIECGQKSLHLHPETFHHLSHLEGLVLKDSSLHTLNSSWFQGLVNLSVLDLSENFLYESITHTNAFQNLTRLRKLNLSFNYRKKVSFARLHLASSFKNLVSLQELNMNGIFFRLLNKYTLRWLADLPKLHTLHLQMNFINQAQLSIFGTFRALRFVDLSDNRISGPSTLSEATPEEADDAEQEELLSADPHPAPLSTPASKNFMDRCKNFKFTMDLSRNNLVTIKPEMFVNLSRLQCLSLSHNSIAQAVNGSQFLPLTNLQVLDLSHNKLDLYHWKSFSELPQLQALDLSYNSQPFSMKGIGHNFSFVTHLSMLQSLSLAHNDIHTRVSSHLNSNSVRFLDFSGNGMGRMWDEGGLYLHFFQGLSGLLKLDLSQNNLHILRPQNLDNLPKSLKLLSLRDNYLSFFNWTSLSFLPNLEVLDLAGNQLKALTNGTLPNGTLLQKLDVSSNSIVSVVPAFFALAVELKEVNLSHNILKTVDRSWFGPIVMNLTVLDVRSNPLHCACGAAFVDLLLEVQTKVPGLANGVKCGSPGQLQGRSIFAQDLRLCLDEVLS
Procedure: Biotinylated CpG-DNA 1668 (SEQ ID NO:1) and non-CpG-DNA 1668GC (SEQ ID NO:3) were immobilized on streptavidin sensor chip flow cells 1 and 2, respectively.
FIG. 2B is a graph depicting SPR biosensor analysis of quinoquine (QC) on TLR9-PAMP interaction. Biotinylated CpG-DNA 1668 (SEQ ID NO:1) and non-CpG-DNA 1668GC (SEQ ID NO:3) were immobilized on streptavidin sensor chip flow cells 1 and 2, respectively. 200 nM TLR9 and indicated concentrations of quinoquine were injected and sensorgrams recorded.
(§1) SPR biosensor analysis. Real-time binding of TLR9 or TLR2 was measured by surface plasmon resonance biosensor technology using the BiaCore X system (Uppsala, Sweden). For analysis of TLR9 and TLR2 interaction, biotinylated CpG-DNA and non-CpG-DNA, or biotinylated Pam3CysK4 and PHCK4, respectively, were loaded in running buffer (50 mM MES, 150 mM NaCl, 1 mM MgCl2 at pH 6.5) on SA chips precoated with streptavidin (Biacore AB, Uppsala, Sweden). Non-CpG-DNA or PHCK4 (Wiesmuller K H et al. (1989) Vaccine 7:29-33) served as reference for CpG-DNA and Pam3CysK4 interaction (structure or sequence in Table 1). […] TLR proteins were introduced at 200 nM or as indicated in 40 μl running buffer at a flow rate of 10 μl/min. Binding was measured at 25° C. for 750 s (delay time 300 s). […] Sensorgrams were recorded and kinetic data were calculated by the BiaCore Evaluation program (Biacore, version 3.0.1). Regeneration of the chip was performed by injection of 10 μl 50 mM NaOH, 1 M NaCl and extensive re-equilibration.

[3] = molecular target: T2, mTLR9ect (extracellular domain of murine TLR9 fused to human IgG1-Fc) (Mus musculus, UniProt Q9EQU3); assay: SPR biosensor analysis of mTLR9ect binding to immobilized CpG-DNA
T2 construct: mTLR9ect (aa 1-816); made in house
T2 sequence (Q9EQU3 26-816): T1 sequence (Q9EQU3 26-816)
From the text: (§2) Protein. Recombinant fusion proteins consisting of the extracellular domain of Toll-like receptors mTLR9ect (aa 1-816), mTLR9ect-mut (see below) (aa 1-816), hTLR9ect (aa 1-815) and mTLR2ect (aa 1-587) fused to human IgG1-Fc were constructed by amplifying the corresponding extracellular domain and ligating the fragment in frame into a pcDNA3.1(−) (Invitrogen, Netherlands) vector containing the coding sequence for human IgG1-Fc. Fusion proteins were stably expressed in HEK 293 cells and purified from cell lysates by protein A affinity chromatography.
as §1
For detailed analysis of TLR9-CpG-DNA interaction, surface plasmon resonance (SPR) biosensor based technology was used with CpG- and non-CpG-DNA immobilized onto separate flow cells of a streptavidin-coated chip. Under these settings non-CpG-DNA served as reference for specific binding (see Methods). Binding of mTLR9ect to DNA was CpG-sequence-specific and increased in a dose-dependent manner. […] Using the 1:1 binding model of the BioEvaluation software as fitting algorithm and on the basis of four different mTLR9ect concentrations ranging from 50 to 300 nM, a dissociation constant (Kd) of 200 nM was obtained with low chi-squared residuals (4,76). […] Weber AN et al. (2003) Nat. Immunol. 4:794-800. Furthermore the concentration of CpG-DNA 1668 (SEQ ID NO:1) for half-maximal activation of murine TLR9 has been recently calculated as 70 nM which correlates well with the KD obtained here. Bauer S et al. (2001) Proc. Natl. Acad. Sci. U.S.A. 98:9237-9242. […] This difference in affinity correlates with the observed species-specific variance in CpG-motif recognition, as well as activation potential. Bauer S et al. (2001) Proc. Natl. Acad. Sci. U.S.A. 98:9237-9242.

[4] = molecular target: T3, mTLR9ect (Mus musculus, UniProt Q9EQU3); assay: UV-crosslinking of mTLR9ect with 32P-labeled DNA and SDS-PAGE; type: binding, murine; conditions: SDS-PAGE, complex at 150 kDa
T3 construct: mTLR9ect (aa 1-816); made in house
T3 sequence (Q9EQU3 26-816): T1 sequence (Q9EQU3 26-816)
From the text: FIG. 1B is an image of an SDS-PAGE gel depicting purified proteins from FIG. 1A UV-crosslinked with ^32P-labeled CpG- or non-CpG-DNA, separated by SDS-PAGE, and autoradiographed. TLR9 and free DNA are highlighted.
Bauer S et al. (2001) Proc. Natl. Acad. Sci. U.S.A. 98:9237-9242. To assess binding of TLR9 to CpG-DNA, a recombinant fusion protein consisting of the extracellular domain of murine TLR9 and human IgG 1-Fc (mTLR9ect) was constructed. The extracellular domain of murine TLR2 also fused to IgG1-Fc (mTLR2ect) served as control. Proteins were expressed in HEK 293 cells and purified via protein A affinity chromatography (FIG. 1A). Under denaturing and non-reducing conditions mTLR9ect and mTLR2ect are approximately 10% in a monomeric and 90% in a dimeric form. Dimerization of the proteins is probably mediated by the IgG 1-Fc fusion partner which forms disulfide bonds (FIG. 1A). Initially, binding of mTLR9ect to radiolabeled DNA was determined by UV-crosslinking and subsequent SDS-PAGE.

[5] = molecular target: T4, human TLR9ect (Homo sapiens, UniProt Q9NR96); assay: SPR biosensor analysis of human TLR9ect binding to CpG-DNA 2006; conditions: non-CpG-DNA 2006GC as control
T4 construct: hTLR9ect (aa 1-815); made in house
T4 sequence (Q9NR96 26-815): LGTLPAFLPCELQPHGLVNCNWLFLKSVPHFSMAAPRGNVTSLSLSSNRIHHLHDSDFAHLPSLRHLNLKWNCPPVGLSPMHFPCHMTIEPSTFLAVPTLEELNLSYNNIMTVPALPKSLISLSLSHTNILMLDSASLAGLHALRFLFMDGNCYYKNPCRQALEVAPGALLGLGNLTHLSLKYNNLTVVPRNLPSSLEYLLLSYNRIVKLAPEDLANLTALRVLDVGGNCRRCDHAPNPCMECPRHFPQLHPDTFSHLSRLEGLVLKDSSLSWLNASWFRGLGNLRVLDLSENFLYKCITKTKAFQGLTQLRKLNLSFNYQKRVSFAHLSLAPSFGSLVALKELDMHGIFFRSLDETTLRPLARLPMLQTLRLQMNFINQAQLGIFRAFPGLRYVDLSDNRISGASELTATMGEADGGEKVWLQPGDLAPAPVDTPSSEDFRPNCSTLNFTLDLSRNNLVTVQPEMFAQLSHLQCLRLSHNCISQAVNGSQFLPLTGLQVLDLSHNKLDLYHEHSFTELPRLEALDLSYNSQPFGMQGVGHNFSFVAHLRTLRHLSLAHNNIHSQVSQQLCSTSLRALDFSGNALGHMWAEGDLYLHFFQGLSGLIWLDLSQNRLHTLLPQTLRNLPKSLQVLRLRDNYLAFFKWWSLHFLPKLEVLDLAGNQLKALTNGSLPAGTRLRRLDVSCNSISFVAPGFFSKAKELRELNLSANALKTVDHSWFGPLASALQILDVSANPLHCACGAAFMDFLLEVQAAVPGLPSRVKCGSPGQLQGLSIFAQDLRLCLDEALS
From the text: as §2
SPR biosensor analysis. Real-time binding of TLR9 or TLR2 was measured by surface plasmon resonance biosensor technology using the BiaCore X system (Uppsala, Sweden). For analysis of TLR9 and TLR2 interaction, biotinylated CpG-DNA and non-CpG-DNA, or biotinylated Pam3CysK4 and PHCK4, respectively, were loaded in running buffer (50 mM MES, 150 mM NaCl, 1 mM MgCl2 at pH 6.5) on SA chips precoated with streptavidin (Biacore AB, Uppsala, Sweden). Non-CpG-DNA or PHCK4 (Wiesmuller K H et al. (1989) Vaccine 7:29-33) served as reference for CpG-DNA and Pam3CysK4 interaction (structure or sequence in Table 1). […] Binding was measured at 25° C. for 750 s (delay time 300 s). […] Sensorgrams were recorded and kinetic data were calculated by the BiaCore Evaluation program (Biacore, version 3.0.1). […]

## CO/C1=C\C(C)=C\[C@@H](C)[C@@H](O)[C@@H](C)C/C(C)=C/C=C/[C@H](OC)[C@@H]([C@@H](C)[C@@H](O)[C@H](C)[C@@]2(O)C[C@@H](O)[C@H](C)[C@@H](C(C)C)O2)OC1=O [bafilomycin A1]
[1]
  inhibition of TLR9-driven NF-κB activation: inhibited cell activation
[2]
  inhibition of binding of TLR9 to CpG-DNA: did not influence

## 5′-TCCATGAGCTTCCTGATGCT-3′ (chemistry not given here) [non-CpG-DNA 1668GC, non-CpG control oligodeoxynucleotide]
[3]; competition, free DNA added in dissociation phase
  release of bound mTLR9ect by free injected DNA: did not lead to the release
[3]; pre-incubation prior to SPR analysis
  effect of pre-incubation of mTLR9ect with DNA on binding to chip-immobilized CpG-DNA: no inhibitory effect
[4]
  binding of mTLR9ect to radiolabeled DNA: bound only weakly

## 5′-TCGTCGTTTTGTCGTTTTGTCGTT-3′ [CpG-DNA 2006]
[5]
  interaction with human TLR9ect: specifically interacted

Source: patent US20050100983A1, “Cell-free methods for identifying compounds that affect toll-like receptor 9 (TLR9) signaling” (Coley Pharmaceutical GmbH, priority 2003, published 2005)
